# In patent US20250367235A1, “SYSTEMS AND METHODS FOR MODULATING A CELL PHENOTYPE” (XCELL BIOSCIENCES, INC., priority 2019, published 2025):
# System: PC-3, a prostate cancer cell line
# Assay: PBMC tumor cell killing co-culture with anti-PD-1 antibodies, cell viability by CellTiter Glo
# Format: cell-based, human
# Details: 1% O2, 2 PSI above ambient pressure vs ambient conditions; antibody 10 ug/ml; PBMCs with PC-3 at effector to target ratio 20:1; 5 days; average of 21 PBMC isolates; FIG. 2
# Protocol: PBMCs were isolated from 21 healthy volunteers. The PBMCs were cultured together with target tumor cells, (PC-3, a prostate cancer cell line), at an effector to target ratio of 20:1. All cells were cultured in RPMI1640 medium supplemented with 10% fetal bovine serum over a 5 day period. PBMCs were not activated with IL-2. Cell viability was measured at the end of the 5 day period by CellTiter Glo Assay (Promega) with 3 or 4 technical replicates. Each of the 21 PBMC isolates, and target cells, was cultured under either ambient conditions, or hypoxic and hyperbaric conditions (1% O2, 2 PSI above ambient pressure), and with or without anti-PD-1 antibodies. The anti-PD-1 antibodies used were Nivolumab and Pembrolizumab (10 ug/ml). Average results across the 21 different PBMC isolates are shown in FIG. 2, with error bars representing the standard error of the mean, and p values were calculated using paired Student's t tests.
row,Substance,effect of hypoxic and hyperbaric conditions on efficacy of treatment at activating PBMCs to kill tumor cells
1,Pembrolizumab,more efficient at activating PBMCs to kill tumor cells
2,Nivolumab,did not have a noticeable effect
